Measured values as given in patent publication EP3875590A1, “METHOD FOR PRODUCING ORGANIC COMPOUND AND CORYNEFORM BACTERIUM” (Green Earth Institute Co., Ltd., priority 2018, dated 2020).

Key:
leucine dehydrogenase [1] = experiment: oxidative deamination reaction activity against L-homoserine, crushed-cell solution expressing leucine dehydrogenase; format: biochemical, Lysinibacillus sphaericus; conditions: crushed cells of GES1007 (E. coli BL21 (DE3), pGE1148); 100 mM glycine-KCl-KOH (pH 10.0), 2.5 mM NAD^+, 50 mM L-homoserine; NADH absorption at 340 nm
Description: Transformation was performed using pGE1148 and using ECOSTM Competent E. coli BL21 (DE3) (manufactured by NIPPON GENE CO., LTD.) according to its instructions, and the obtained strain was designated as GES1007. GES1007 was inoculated into an LB agar medium containing 100 µg/mL of ampicillin under aseptic conditions, and culture was performed at 37°C. Bacterial cells grown on the agar medium were inoculated into 10 mL of an LB medium containing 100 µg/mL of ampicillin, and shaking culture was performed at 37°C to prepare a seed culture solution. This seed culture solution was inoculated into 100 mL of an LB medium containing 100 µg/mL of ampicillin and prepared in a 500 mL flask so that a turbidity was 0.1. Shaking was performed at 37°C, and culture was performed until a turbidity was 0.7. […] When a protein concentration in this solution in which the cells were crushed was measured, it was 12 mg/mL.
Using this solution in which the bacterial cells were crushed, an oxidative deamination reaction activity against L-homoserine was measured. As the reaction conditions, an appropriately diluted solution in which the bacterial cells were crushed was mixed with 100 mM glycine-KCl-KOH (pH 10.0), 2.5 mM NAD^+, and 50 mM L-homoserine, and a continuous increase in absorption by NADH at 340 nm was measured using a Varioskan LUX (manufactured by Thermo Fisher Scientific Inc.). […]

[2] = target: T1, phenylalanine dehydrogenase (Pseudobacillus badius, UniProt Q59224); experiment: oxidative deamination reaction activity against L-homoserine, crushed-cell solution expressing phenylalanine dehydrogenase; format: biochemical, Bacillus badius; conditions: crushed cells of GES1136 (E. coli BL21 (DE3), pGE1237); same conditions as 4-6-(1): pH 10.0, 2.5 mM NAD^+, 50 mM L-homoserine
T1 construct: His-tag (pET-15b vector-encoded, with thrombin site); made in house; host or cells: E. coli BL21 (DE3), strain GES1136, plasmid pGE1237 (pET-15b)
T1 sequence (Q59224 whole entry): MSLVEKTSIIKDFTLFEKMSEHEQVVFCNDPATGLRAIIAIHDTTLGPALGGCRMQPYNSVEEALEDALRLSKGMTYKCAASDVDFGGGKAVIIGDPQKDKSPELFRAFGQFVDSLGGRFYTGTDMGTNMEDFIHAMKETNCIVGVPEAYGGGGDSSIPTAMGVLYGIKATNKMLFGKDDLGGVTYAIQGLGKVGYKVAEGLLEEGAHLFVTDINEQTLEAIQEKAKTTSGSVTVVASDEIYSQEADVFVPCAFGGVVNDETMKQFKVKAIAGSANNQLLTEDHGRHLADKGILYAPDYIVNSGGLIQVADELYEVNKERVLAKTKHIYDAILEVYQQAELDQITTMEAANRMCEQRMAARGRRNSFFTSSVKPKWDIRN
Description: (§1) Using this solution in which the bacterial cells were crushed, an oxidative deamination reaction activity against L-homoserine was measured. As the reaction conditions, an appropriately diluted solution in which the bacterial cells were crushed was mixed with 100 mM glycine-KCl-KOH (pH 10.0), 2.5 mM NAD^+, and 50 mM L-homoserine, and a continuous increase in absorption by NADH at 340 nm was measured using a Varioskan LUX (manufactured by Thermo Fisher Scientific Inc.). As a result, a specific activity of this solution in which the bacterial cells were crushed against L-homoserine was 0.21 U/mg of protein.
(§2) Transformation was performed using pGE1237 and using ECOSTM Competent E. coli BL21 (DE3) (manufactured by NIPPON GENE CO., LTD.) according to its instructions, and the obtained strain was designated as GES 1136. When a protein concentration in a solution, in which the cells were crushed and which was obtained by subj ecting GES1136 to the same operation as that of GES 1007, was measured, it was 11 mg/mL.
(§3) As a result of measuring an oxidative deamination reaction activity against L-homoserine in the same manner as in 4-6-(1) using this solution in which the bacterial cells were crushed, a specific activity of this solution in which the bacterial cells were crushed against L-homoserine was 0.045 U/mg of protein.

valine dehydrogenase = target: T2, valine dehydrogenase (Streptomyces fradiae, UniProt P40176); experiment: oxidative deamination reaction activity against L-homoserine, crushed-cell solution expressing valine dehydrogenase; format: biochemical; conditions: crushed cells of GES1057 (E. coli BL21 (DE3), pGE1175); same conditions as 4-6-(1): pH 10.0, 2.5 mM NAD^+, 50 mM L-homoserine
T2 construct: His-tag (pET-15b vector-encoded, with thrombin site); made in house; host or cells: E. coli BL21 (DE3), strain GES1057, plasmid pGE1175 (pET-15b)
T2 sequence (P40176 whole entry): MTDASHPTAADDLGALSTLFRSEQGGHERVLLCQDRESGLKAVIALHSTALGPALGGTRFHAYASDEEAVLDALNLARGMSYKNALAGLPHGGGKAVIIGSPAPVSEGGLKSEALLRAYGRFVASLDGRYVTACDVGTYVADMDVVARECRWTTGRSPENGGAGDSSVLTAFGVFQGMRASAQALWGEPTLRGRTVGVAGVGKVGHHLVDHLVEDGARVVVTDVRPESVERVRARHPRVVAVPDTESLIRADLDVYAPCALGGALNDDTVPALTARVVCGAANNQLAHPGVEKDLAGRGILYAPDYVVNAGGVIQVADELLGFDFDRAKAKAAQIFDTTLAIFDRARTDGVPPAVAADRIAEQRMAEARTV
Description: as §1
as §2, with “pGE1175” for “pGE1237”, “1057.” for “1136.”, “subjecting GES1057” for “subj ecting GES1136”, “4.2” for “11”
as §3, with “0.21” for “0.045”

leucine dehydrogenase [3] = experiment: enzyme kinetics (Michaelis-Menten) of the reductive amination reaction of HOB with purified leucine dehydrogenase; format: biochemical, Lysinibacillus sphaericus; conditions: 100 mM HEPES/KOH (pH 7.5), 200 mM ammonium chloride, 0.2 mM NADH, 3.7 µg/mL leucine dehydrogenase
Description: The solution in which the bacterial cells were crushed and which was obtained in 4-6-(1) was subjected to a filtration treatment using a syringe filter with a pore size of 0.2 µm (manufactured by Sartorius AG). Fractionation was performed using an AKTA purifier system (manufactured by GE Healthcare) to which a HisTrap™ FF 1 mL column was connected, and using 50 mM sodium phosphate buffer (pH 8.0), 500 mM sodium chloride, and 10% glycerol as adsorption buffers, and 50 mM sodium phosphate buffer (pH 8.0), 500 mM sodium chloride, 10% glycerol, and 500 mM imidazole as elution buffers. Fractions containing leucine dehydrogenase identified by SDS-PAGE were recovered and concentrated using ultrafiltration. […]
Using the purified leucine dehydrogenase thus obtained, analysis of enzyme kinetics based on the Michaelis-Menten formula using HOB as a substrate was performed. As reaction conditions, 100 mM HEPES/KOH (pH 7.5), 200 mM ammonium chloride, 0.2 mM NADH, and 3.7 µg/mL leucine dehydrogenase were used, and a reaction rate at which a concentration of HOB was 3.13, 6.25, 12.5, 25.0, 50.0, and 100 mM was measured. A reaction rate was calculated by measuring a continuous decrease in absorption by NADH at 340 nm using a Varioskan LUX (manufactured by Thermo Fisher Scientific Inc.). […]

Row | Structure (SMILES) | specific activity of this solution in which the bacterial cells were crushed against L-homoserine (leucine dehydrogenase [1]) | specific activity of this solution in which the bacterial cells were crushed against L-homoserine [2] | specific activity of this solution in which the bacterial cells were crushed against L-homoserine (valine dehydrogenase) | Km (leucine dehydrogenase [3]; HOB 3.13-100 mM, read-out: Michaelis constant KM for HOB) | catalyst rotation speed kcat (leucine dehydrogenase [3]; HOB as a substrate)
1 | N[C@@H](CCO)C(=O)O [L-homoserine] | 0.21 U/mg of protein | 0.045 U/mg of protein | 0.21 U/mg of protein |  | 
2 | O=C(O)C(=O)CCO [HOB, 4-hydroxy-2-oxobutyric acid] |  |  |  | 7.7 mM | 2.7 s⁻¹
